Test results reported in patent US8802597B2, “Herbicidal pyrimidines” (E I du Pont de Nemours and Company, priority 2003, dated 2014).

Key:
Assay in all cases: Test G pre/postemergence
Assay type in all cases: in vivo
[1] = test system: prickly sida (Sida spinosa)
Source text: (§1) Seeds or nutlets of plant species selected from bermudagrass (Cynodon dactylon), Surinam grass (Brachiaria decumbens), large crabgrass (Digitaria sanguinalis), green foxtail (Setaria viridis), goosegrass (Eleusine indica), johnsongrass (Sorghum halepense), kochia (Kochia scoparia), pitted morningglory (Ipomoea lacunosa), purple nutsedge (Cyperus rotundus), common ragweed (Ambrosia elatior), black mustard (Brassica nigra), guineagrass (Panicum maximum), dallisgrass (Paspalum dilatatum), barnyardgrass (Echinochloa crus-galli), southern sandbur (Cenchrus echinatus), common sowthistle (Sonchus oleraceous), prickly sida (Sida spinosa), Italian ryegrass (Lolium multiflorum), common purslane (Portulaca oleracea), broadleaf signalgrass (Brachiaria platyphylla), common groundsel (Senecio vulgaris), common chickweed (Stellaria media), tropical spiderwort (Commelina benghalensis), annual bluegrass (Poa annua), downy bromegrass (Bromus tectorum), itchgrass (Rottboellia cochinchinensis), quackgrass (Elytrigia repens), Canada horseweed (Conyza canadensis), field bindweed (Convolvulus arvensis), spanishneedles (Bidens bipinnata), common mallow (Malva sylvestris), and Russian thistle (Salsola kali) were planted and treated preemergence with test chemicals formulated in a non-phytotoxic solvent mixture which included a surfactant.
(§2) At the same time, plants selected from these weed species were treated with postemergence applications of some of the test chemicals formulated in the same manner. Plants ranged in height from 2 to 18 cm (1- to 4-leaf stage) for postemergence treatments. Treated plants and controls were maintained in a greenhouse for 12 to 21 days, after which time all species were compared to controls and visually evaluated.
(§3) Plant response ratings, summarized in Table G, are based on a scale of 0 to 100 where 0 is no effect and 100 is complete control. A dash (-) response means no test result.

[2] = test system: green foxtail (Setaria viridis)
Source text: as §1, §2, §3

[3] = test system: southern sandbur (Cenchrus echinatus)
Source text: as §1, §2, §3

[4] = test system: common chickweed (Stellaria media)
Source text: as §1, §2, §3

[5] = test system: pitted morningglory (Ipomoea lacunosa)
Source text: as §1, §2, §3

[6] = test system: common ragweed (Ambrosia elatior)
Source text: as §1, §2, §3

[7] = test system: quackgrass (Elytrigia repens)
Source text: as §1, §2, §3

[8] = test system: itchgrass (Rottboellia cochinchinensis)
Source text: as §1, §2, §3

[9] = test system: broadleaf signalgrass (Brachiaria platyphylla)
Source text: as §1, §2, §3

[10] = test system: goosegrass (Eleusine indica)
Source text: as §1, §2, §3

[11] = test system: common mallow (Malva sylvestris)
Source text: as §1, §2, §3

[12] = test system: large crabgrass (Digitaria sanguinalis)
Source text: as §1, §2, §3

[13] = test system: dallisgrass (Paspalum dilatatum)
Source text: as §1, §2, §3

[14] = test system: black mustard (Brassica nigra)
Source text: as §1, §2, §3

[15] = Postemergence, 250 g ai/ha, scale 0 to 100
[16] = Postemergence, 16 g ai/ha, scale 0 to 100
[17] = Postemergence, 31 g ai/ha, scale 0 to 100
[18] = Postemergence, 62 g ai/ha, scale 0 to 100
[19] = Postemergence, 125 g ai/ha, scale 0 to 100
[20] = Preemergence, 16 g ai/ha, scale 0-100
[21] = Preemergence, 31 g ai/ha, scale 0-100
[22] = Preemergence, 62 g ai/ha, scale 0-100
[23] = Preemergence, 125 g ai/ha, scale 0-100
[24] = Preemergence, 250 g ai/ha, scale 0-100

In the case of `Nc1nc(C2CC2)nc(C(=O)[O-])c1Cl.[Na+]` [Compound 77, 6-amino-5-chloro-2-cyclopropyl-4-pyrimidinecarboxylic acid monosodium salt], the “Plant response rating, Prickly Sida” value [1, 15] is reported as 80, the “Plant response rating, Prickly Sida” value [1, 16] is reported as 70 and the “Plant response rating, Prickly Sida” value [1, 17] is reported as 75. For the same molecule, the “Plant response rating, Prickly Sida” value [1, 18] was 80, the “Plant response rating, Prickly Sida” value [1, 19] was 80 and the “Plant response rating, Prickly Sida” value [1, 20] was 70. For the same molecule, the “Plant response rating, Prickly Sida” value [1, 21] was 75, the “Plant response rating, Prickly Sida” value [1, 22] was 85 and the “Plant response rating, Prickly Sida” value [1, 23] was 90. For the same molecule, the “Plant response rating, Prickly Sida” value [1, 24] was 95, the “Plant response rating, Foxtail, Green” value [2, 15] was 40 and the “Plant response rating, Foxtail, Green” value [2, 16] was 0. The “Plant response rating, Foxtail, Green” value [2, 17] was 0, the “Plant response rating, Foxtail, Green” value [2, 18] was 35 and the “Plant response rating, Foxtail, Green” value [2, 19] was 40. For the same molecule, the “Plant response rating, Foxtail, Green” value [2, 20] was 0, the “Plant response rating, Foxtail, Green” value [2, 21] was 5 and the “Plant response rating, Foxtail, Green” value [2, 22] was 65. The “Plant response rating, Foxtail, Green” value [2, 23] was 85, the “Plant response rating, Foxtail, Green” value [2, 24] was 90 and the “Plant response rating, Sandbur” value [3, 15] was 40. For the same molecule, the “Plant response rating, Sandbur” value [3, 16] was 0, the “Plant response rating, Sandbur” value [3, 17] was 0 and the “Plant response rating, Sandbur” value [3, 18] was 10. The “Plant response rating, Sandbur” value [3, 19] was 35, the “Plant response rating, Sandbur” value [3, 20] was 0 and the “Plant response rating, Sandbur” value [3, 21] was 20. For the same molecule, the “Plant response rating, Sandbur” value [3, 22] was 100, the “Plant response rating, Sandbur” value [3, 23] was 100 and the “Plant response rating, Sandbur” value [3, 24] was 100. The “Plant response rating, Chickweed” value [4, 15] was 100, the “Plant response rating, Chickweed” value [4, 16] was 10 and the “Plant response rating, Chickweed” value [4, 17] was 80. For the same molecule, the “Plant response rating, Chickweed” value [4, 18] was 90, the “Plant response rating, Chickweed” value [4, 19] was 90 and the “Plant response rating, Chickweed” value [4, 21] was 70. For the same molecule, the “Plant response rating, Chickweed” value [4, 22] was 90, the “Plant response rating, Chickweed” value [4, 23] was 100 and the “Plant response rating, Chickweed” value [4, 24] was 100. The “Plant response rating, Morningglory” value [5, 15] was 100, the “Plant response rating, Morningglory” value [5, 16] was 50 and the “Plant response rating, Morningglory” value [5, 17] was 60. For the same molecule, the “Plant response rating, Morningglory” value [5, 18] was 90, the “Plant response rating, Morningglory” value [5, 19] was 100 and the “Plant response rating, Morningglory” value [5, 20] was 70. For the same molecule, the “Plant response rating, Morningglory” value [5, 21] was 90, the “Plant response rating, Morningglory” value [5, 22] was 100 and the “Plant response rating, Morningglory” value [5, 23] was 100. The “Plant response rating, Morningglory” value [5, 24] was 100, the “Plant response rating, Ragweed” value [6, 15] was 100 and the “Plant response rating, Ragweed” value [6, 16] was 75. The “Plant response rating, Ragweed” value [6, 17] was 75, the “Plant response rating, Ragweed” value [6, 18] was 95 and the “Plant response rating, Ragweed” value [6, 19] was 98. The “Plant response rating, Ragweed” value [6, 20] was 80, the “Plant response rating, Ragweed” value [6, 21] was 95 and the “Plant response rating, Ragweed” value [6, 22] was 100. For the same molecule, the “Plant response rating, Ragweed” value [6, 23] was 100, the “Plant response rating, Ragweed” value [6, 24] was 100 and the “Plant response rating, Quackgrass” value [7, 15] was 60. For the same molecule, the “Plant response rating, Quackgrass” value [7, 16] was 0, the “Plant response rating, Quackgrass” value [7, 17] was 10 and the “Plant response rating, Quackgrass” value [7, 18] was 40. The “Plant response rating, Quackgrass” value [7, 19] was 60, the “Plant response rating, Quackgrass” value [7, 20] was 0 and the “Plant response rating, Quackgrass” value [7, 21] was 0. For the same molecule, the “Plant response rating, Quackgrass” value [7, 22] was 10, the “Plant response rating, Quackgrass” value [7, 23] was 50 and the “Plant response rating, Quackgrass” value [7, 24] was 80. The “Plant response rating, Itchgrass” value [8, 15] was 80, the “Plant response rating, Itchgrass” value [8, 16] was 0 and the “Plant response rating, Itchgrass” value [8, 17] was 35. The “Plant response rating, Itchgrass” value [8, 18] was 65, the “Plant response rating, Itchgrass” value [8, 19] was 70 and the “Plant response rating, Itchgrass” value [8, 20] was 0. The “Plant response rating, Itchgrass” value [8, 21] was 10, the “Plant response rating, Itchgrass” value [8, 22] was 45 and the “Plant response rating, Itchgrass” value [8, 23] was 85. The “Plant response rating, Itchgrass” value [8, 24] was 90, the “Plant response rating, Signalgrass” value [9, 15] was 70 and the “Plant response rating, Signalgrass” value [9, 16] was 0. The “Plant response rating, Signalgrass” value [9, 17] was 30, the “Plant response rating, Signalgrass” value [9, 18] was 50 and the “Plant response rating, Signalgrass” value [9, 19] was 60. For the same molecule, the “Plant response rating, Signalgrass” value [9, 20] was 5, the “Plant response rating, Signalgrass” value [9, 21] was 10 and the “Plant response rating, Signalgrass” value [9, 22] was 75. The “Plant response rating, Signalgrass” value [9, 23] was 90, the “Plant response rating, Signalgrass” value [9, 24] was 95 and the “Plant response rating, Goosegrass” value [10, 15] was 65. For the same molecule, the “Plant response rating, Goosegrass” value [10, 16] was 0, the “Plant response rating, Goosegrass” value [10, 17] was 15 and the “Plant response rating, Goosegrass” value [10, 18] was 50. For the same molecule, the “Plant response rating, Goosegrass” value [10, 19] was 50, the “Plant response rating, Goosegrass” value [10, 20] was 0 and the “Plant response rating, Goosegrass” value [10, 21] was 5. The “Plant response rating, Goosegrass” value [10, 22] was 5, the “Plant response rating, Goosegrass” value [10, 23] was 25 and the “Plant response rating, Goosegrass” value [10, 24] was 55. The “Plant response rating, Mallow” value [11, 15] was 95, the “Plant response rating, Mallow” value [11, 16] was 65 and the “Plant response rating, Mallow” value [11, 17] was 75. For the same molecule, the “Plant response rating, Mallow” value [11, 18] was 80, the “Plant response rating, Mallow” value [11, 19] was 85 and the “Plant response rating, Mallow” value [11, 20] was 30. For the same molecule, the “Plant response rating, Mallow” value [11, 21] was 40, the “Plant response rating, Mallow” value [11, 22] was 50 and the “Plant response rating, Mallow” value [11, 23] was 80. For the same molecule, the “Plant response rating, Mallow” value [11, 24] was 80, the “Plant response rating, Crabgrass, Large” value [12, 15] was 75 and the “Plant response rating, Crabgrass, Large” value [12, 16] was 60. The “Plant response rating, Crabgrass, Large” value [12, 17] was 70, the “Plant response rating, Crabgrass, Large” value [12, 18] was 75 and the “Plant response rating, Crabgrass, Large” value [12, 19] was 75. For the same molecule, the “Plant response rating, Crabgrass, Large” value [12, 20] was 45, the “Plant response rating, Crabgrass, Large” value [12, 21] was 45 and the “Plant response rating, Crabgrass, Large” value [12, 22] was 80. For the same molecule, the “Plant response rating, Crabgrass, Large” value [12, 23] was 85, the “Plant response rating, Crabgrass, Large” value [12, 24] was 90 and the “Plant response rating, Dallisgrass” value [13, 15] was 50. The “Plant response rating, Dallisgrass” value [13, 16] was 0, the “Plant response rating, Dallisgrass” value [13, 17] was 0 and the “Plant response rating, Dallisgrass” value [13, 18] was 15. The “Plant response rating, Dallisgrass” value [13, 19] was 35, the “Plant response rating, Dallisgrass” value [13, 20] was 0 and the “Plant response rating, Dallisgrass” value [13, 21] was 5. The “Plant response rating, Dallisgrass” value [13, 22] was 15, the “Plant response rating, Dallisgrass” value [13, 23] was 30 and the “Plant response rating, Dallisgrass” value [13, 24] was 85. The “Plant response rating, Black Mustard” value [14, 15] was 60, the “Plant response rating, Black Mustard” value [14, 16] was 25 and the “Plant response rating, Black Mustard” value [14, 17] was 40. The “Plant response rating, Black Mustard” value [14, 18] was 50, the “Plant response rating, Black Mustard” value [14, 19] was 60 and the “Plant response rating, Black Mustard” value [14, 20] was 60. The “Plant response rating, Black Mustard” value [14, 21] was 60, the “Plant response rating, Black Mustard” value [14, 22] was 85 and the “Plant response rating, Black Mustard” value [14, 23] was 90. The “Plant response rating, Black Mustard” value [14, 24] was 95.
